Experimental data reported in US20170216355A1, “Methods and Compositions for Enhancing T Cell Function and Survival” (Augusta University Research Institute, Inc., priority 2016, published 2017).
“Also recorded” adds a separate entry of the source.

Experiments:
[1] = tested on: CD8 T cells from pMel-1 mice; assay: Phenotyping of gp100-activated CD8 T cells (CD62L/CD44 flow cytometry); assay type: cell-based, mouse; settings: for phenotype of CD8 T cells (TCM vs TEM) compared to non-treated cells: after 3 days of stimulation with 1 μM gp100 25-33 (7 days culture); for CD62L expression level: day 3, and day 7 after each stimulation with gp100
Description: CD8 T cells from pMel-1 mice were activated in vitro as previously described^5. Briefly, homogenized pMel-1 splenocytes were stimulated with gp10025-33 peptide at a 1 μM concentration (day 0). Cells were cultured in RPMI 1640 (Lonza) supplemented with 10% FBS, penicillin (100 U/mL), streptomycin ([…]), 0.1% β-mercaptoethanol (Life Technologies, Invitrogen) and IL-2 (100 U/ml) (Peprotech) at 37° C. with 5% CO2. pMel-1 cells were cultured with or without the different PI3K inhibitors. The concentration of the inhibitors was maintained throughout the culture by changing the media every 48-72 hours.
On Days 7, 14 and 21, cells were re-stimulated with gp10025-33 peptide at a 1 μM concentration using feeder cells (irradiated WT splenocytes, 4000 Rads) at 1:1 ratio using the same culture conditions.
Cells were labeled with 5 μM Violet Cell Trace (VCT) proliferation dye (Life Technologies, Invitrogen) prior to their stimulation (day 0) following the manufacturers' instructions. The proliferation of CD8 T cells was assessed via VCT dye dilution (day 3) using an LSRII SORP with HTS Flow Cytometer (BD Biosciences). The data were analyzed using FlowJo 10 (Tree Star). The cultured cells were harvested on days 3, 7, 14 and 21 to assess their phenotype. Cells were stained with the following surface marker antibodies (BD Biosciences): APC-Cy7 labeled anti-CD8, FITC labeled anti-Vβ13, PE labeled anti-CD62L, APC labeled anti-CD44, PE-CF594 labeled anti-CD127, APC labeled anti-KLRG-1 in addition to the viability stain 7AAD. All the analyses were performed on viable (7AAD−), Vβ13+CD8+ T cells.

[2] = tested on: CD8 T cells from pMel-1 mice; assay: Proliferation assay (VCT dye dilution) and fold expansion of CD8 T cells; assay type: cell-based, mouse
Description: CD8 T cells from pMel-1 mice were activated in vitro as previously described^5. […] The concentration of the inhibitors was maintained throughout the culture by changing the media every 48-72 hours. […] The data were analyzed using FlowJo 10 (Tree Star). […] Cells were stained with the following surface marker antibodies (BD Biosciences): APC-Cy7 labeled anti-CD8, FITC labeled anti-Vβ13, PE labeled anti-CD62L, APC labeled anti-CD44, PE-CF594 labeled anti-CD127, APC labeled anti-KLRG-1 in addition to the viability stain 7AAD. All the analyses were performed on viable (7AAD−), Vβ13+CD8+ T cells.

[3] = tested on: CD8 T cells from pMel-1 mice; assay: Cytometric Bead Array of IL-2, TNF and IFN-γ secretion; assay type: cell-based, mouse
p110α = p110α (Homo sapiens, UniProt P42336); settings: cited from earlier work
p110δ = p110δ (Homo sapiens, UniProt O00329); settings: cited from earlier work
p110γ = p110γ (Homo sapiens, UniProt P48736); settings: cited from earlier work
Sequence of p110γ (P48736 whole entry, species assumed): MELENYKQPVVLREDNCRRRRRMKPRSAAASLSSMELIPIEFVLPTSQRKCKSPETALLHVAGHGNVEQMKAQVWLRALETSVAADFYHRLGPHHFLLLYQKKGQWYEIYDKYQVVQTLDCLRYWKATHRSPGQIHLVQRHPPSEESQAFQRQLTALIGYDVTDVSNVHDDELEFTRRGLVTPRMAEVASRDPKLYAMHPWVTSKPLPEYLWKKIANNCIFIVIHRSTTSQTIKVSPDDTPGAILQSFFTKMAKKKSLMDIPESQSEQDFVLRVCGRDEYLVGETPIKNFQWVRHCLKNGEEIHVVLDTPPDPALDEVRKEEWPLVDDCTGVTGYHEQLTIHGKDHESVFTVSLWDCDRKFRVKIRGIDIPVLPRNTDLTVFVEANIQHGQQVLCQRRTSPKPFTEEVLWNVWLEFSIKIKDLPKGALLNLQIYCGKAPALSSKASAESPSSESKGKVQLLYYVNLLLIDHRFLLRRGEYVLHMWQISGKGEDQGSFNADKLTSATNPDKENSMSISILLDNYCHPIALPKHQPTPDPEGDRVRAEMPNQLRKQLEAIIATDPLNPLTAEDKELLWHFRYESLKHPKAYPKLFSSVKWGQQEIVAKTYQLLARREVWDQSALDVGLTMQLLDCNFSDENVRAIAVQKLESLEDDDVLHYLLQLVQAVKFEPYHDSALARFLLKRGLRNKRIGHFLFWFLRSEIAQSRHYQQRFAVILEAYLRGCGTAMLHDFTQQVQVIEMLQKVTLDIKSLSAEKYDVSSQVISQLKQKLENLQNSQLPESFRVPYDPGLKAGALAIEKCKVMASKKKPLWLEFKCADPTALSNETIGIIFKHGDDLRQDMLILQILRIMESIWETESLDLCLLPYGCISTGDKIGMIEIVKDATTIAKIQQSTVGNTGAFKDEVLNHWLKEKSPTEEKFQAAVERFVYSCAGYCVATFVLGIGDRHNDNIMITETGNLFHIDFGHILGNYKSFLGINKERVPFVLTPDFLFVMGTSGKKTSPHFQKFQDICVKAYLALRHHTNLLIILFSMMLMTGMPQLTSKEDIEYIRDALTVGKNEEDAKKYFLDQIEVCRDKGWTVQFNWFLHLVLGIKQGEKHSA

Sequence of p110α (P42336 whole entry, species assumed): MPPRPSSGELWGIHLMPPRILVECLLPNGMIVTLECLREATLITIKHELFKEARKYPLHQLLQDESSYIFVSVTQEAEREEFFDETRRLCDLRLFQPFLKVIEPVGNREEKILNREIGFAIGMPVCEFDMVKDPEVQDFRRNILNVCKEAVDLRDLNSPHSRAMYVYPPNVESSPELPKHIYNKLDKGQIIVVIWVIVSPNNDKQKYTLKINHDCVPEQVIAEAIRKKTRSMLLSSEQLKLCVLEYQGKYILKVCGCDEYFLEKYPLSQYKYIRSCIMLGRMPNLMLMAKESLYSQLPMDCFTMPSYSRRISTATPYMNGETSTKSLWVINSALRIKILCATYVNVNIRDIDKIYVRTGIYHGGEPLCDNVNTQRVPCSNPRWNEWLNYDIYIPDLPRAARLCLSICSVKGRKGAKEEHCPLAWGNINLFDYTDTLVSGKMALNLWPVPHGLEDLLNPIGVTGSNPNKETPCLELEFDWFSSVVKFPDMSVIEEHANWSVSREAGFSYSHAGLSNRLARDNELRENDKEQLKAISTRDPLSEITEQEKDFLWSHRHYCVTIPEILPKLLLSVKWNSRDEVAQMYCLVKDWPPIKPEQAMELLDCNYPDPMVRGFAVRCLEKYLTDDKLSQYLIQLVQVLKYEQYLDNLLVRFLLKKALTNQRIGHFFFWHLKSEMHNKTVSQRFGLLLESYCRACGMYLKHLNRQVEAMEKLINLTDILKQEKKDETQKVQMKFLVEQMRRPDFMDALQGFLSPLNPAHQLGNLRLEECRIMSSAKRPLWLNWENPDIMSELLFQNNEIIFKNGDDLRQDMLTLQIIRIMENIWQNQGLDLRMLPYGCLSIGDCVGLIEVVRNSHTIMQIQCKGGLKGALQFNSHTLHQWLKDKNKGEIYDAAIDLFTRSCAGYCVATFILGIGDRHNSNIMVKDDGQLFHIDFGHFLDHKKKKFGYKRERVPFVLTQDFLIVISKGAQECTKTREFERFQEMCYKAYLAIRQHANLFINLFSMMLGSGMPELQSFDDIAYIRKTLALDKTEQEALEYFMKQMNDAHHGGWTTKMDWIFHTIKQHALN
Sequence of p110δ (O00329 whole entry, species assumed): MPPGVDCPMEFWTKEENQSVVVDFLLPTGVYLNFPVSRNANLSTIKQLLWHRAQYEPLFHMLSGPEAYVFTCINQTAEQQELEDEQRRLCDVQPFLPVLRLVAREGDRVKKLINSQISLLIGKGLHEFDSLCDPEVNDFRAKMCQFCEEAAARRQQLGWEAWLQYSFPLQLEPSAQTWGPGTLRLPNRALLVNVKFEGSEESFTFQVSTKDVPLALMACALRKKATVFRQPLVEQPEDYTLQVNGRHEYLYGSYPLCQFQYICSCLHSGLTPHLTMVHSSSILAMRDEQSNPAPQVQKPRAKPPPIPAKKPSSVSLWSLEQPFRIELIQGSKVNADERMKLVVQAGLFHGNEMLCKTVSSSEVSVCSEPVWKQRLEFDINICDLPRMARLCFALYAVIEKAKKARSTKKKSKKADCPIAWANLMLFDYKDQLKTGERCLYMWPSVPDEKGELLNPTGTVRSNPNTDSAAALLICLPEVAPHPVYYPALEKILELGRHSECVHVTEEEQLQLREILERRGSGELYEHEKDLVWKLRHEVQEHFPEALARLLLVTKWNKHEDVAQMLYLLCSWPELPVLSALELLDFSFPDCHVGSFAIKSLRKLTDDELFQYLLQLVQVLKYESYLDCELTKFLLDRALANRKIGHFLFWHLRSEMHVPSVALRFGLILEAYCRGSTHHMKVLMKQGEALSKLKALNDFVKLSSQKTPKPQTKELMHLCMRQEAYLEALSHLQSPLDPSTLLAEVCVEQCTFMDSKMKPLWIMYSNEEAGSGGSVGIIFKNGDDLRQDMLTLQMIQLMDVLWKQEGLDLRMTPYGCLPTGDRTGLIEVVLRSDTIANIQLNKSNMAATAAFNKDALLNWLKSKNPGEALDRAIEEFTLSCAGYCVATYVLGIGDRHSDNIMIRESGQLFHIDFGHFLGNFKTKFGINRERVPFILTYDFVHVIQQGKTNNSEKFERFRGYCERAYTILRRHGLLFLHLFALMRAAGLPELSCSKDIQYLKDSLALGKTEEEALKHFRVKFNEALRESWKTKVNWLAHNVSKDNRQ
Sequence of p110δ (P27986 whole entry partner, species assumed): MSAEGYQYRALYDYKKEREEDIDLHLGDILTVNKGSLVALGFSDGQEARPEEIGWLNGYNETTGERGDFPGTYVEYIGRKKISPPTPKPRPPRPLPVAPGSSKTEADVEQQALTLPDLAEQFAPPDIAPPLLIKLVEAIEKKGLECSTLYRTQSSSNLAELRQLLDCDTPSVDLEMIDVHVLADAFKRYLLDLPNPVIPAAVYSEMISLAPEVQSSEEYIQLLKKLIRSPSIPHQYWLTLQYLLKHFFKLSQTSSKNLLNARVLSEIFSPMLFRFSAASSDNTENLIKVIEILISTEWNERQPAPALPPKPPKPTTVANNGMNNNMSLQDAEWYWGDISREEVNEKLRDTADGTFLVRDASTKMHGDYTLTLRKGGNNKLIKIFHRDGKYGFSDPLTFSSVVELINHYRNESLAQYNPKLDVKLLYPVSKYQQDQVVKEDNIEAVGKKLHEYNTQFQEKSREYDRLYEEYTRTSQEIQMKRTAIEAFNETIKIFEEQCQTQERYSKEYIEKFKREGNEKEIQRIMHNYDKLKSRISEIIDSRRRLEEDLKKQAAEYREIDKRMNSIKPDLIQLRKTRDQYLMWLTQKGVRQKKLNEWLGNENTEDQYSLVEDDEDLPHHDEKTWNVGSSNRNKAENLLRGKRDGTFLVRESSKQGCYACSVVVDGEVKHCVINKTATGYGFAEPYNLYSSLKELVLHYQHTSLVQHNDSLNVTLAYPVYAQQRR

SMILES: Cc1nc(NC(=O)N2CCC[C@H]2C(N)=O)sc1-c1csc(C(C)(C)C)n1 [A66]
- phenotype of CD8 T cells (TCM vs TEM) compared to non-treated cells [1]: no differences in the phenotype

SMILES: CC[C@H](Nc1ncnc2[nH]cnc12)c1nc2cccc(F)c2c(=O)n1-c1ccccc1 [CAL-101]
- percentage of TCM ([1]; D3, stim1, representative example, non-treated 4%): 32%
- percentage of terminally differentiated T-cells ([1]; D7, Stim 3, representative example, non-treated 36%): 5%
- percentage of TEM cells (CD62LloCD44hi) ([1]; D7, Stim3, representative example, non-treated 64%): 95%

SMILES: CS(=O)(=O)N1CCN(Cc2cc3nc(-c4cccc5[nH]ncc45)nc(N4CCOCC4)c3s2)CC1 [GDC-0941]
- percentage of TCM phenotype (CD62LhiCD44hi) ([1]; GDC at the highest concentration, non-treated cells 96% TEM): 37%
- percentage of TEM ([1]; GDC treatment, after the third stimulation, non-treated 64%): 93%
- percentage of TCM ([1]; GDC treatment, after the third stimulation, non-treated less than 0.01): 3.5%
- phenotype of CD8 T cells (TCM vs TEM) compared to non-treated cells ([1]; listed as GDC): high percentage of the TCM phenotype; also recorded: high percentage of TCM cells
- phenotype of CD8 T cells (TEM, terminally differentiated) compared to non-treated or other inhibitors ([1]; after the second and third stimulations): higher percentage of TEM
- percentage of terminally differentiated T-cells (CD62LloCD44lo) ([1]; after the third stimulation, highest GDC concentration, non-treated 36%): 4%
- CD62L expression level [1]: maintains a high level of CD62L expression
- CD62L expression level ([1]; listed as GDC): maintained high expression levels of CD62L
- toxicity to CD8 T cells ([2]; highest dose tested (279 nM)): toxic
- expansion of CD8 T cells ([2]; with further stimulations (days 7 and 14), vs non-treated cells): expand at a significantly high rate
- ability of CD8 T cells to produce IFNγ and TNF ([3]; GDC-0941, A66 (288 nM), TGX-221 (45 nM), CAL-101 (202.5 nM), re-stimulated days 7 and 14, supernatant after 24 hours): not affected
- IL-2 secretion ([3]; after re-stimulation (stimulation 3), normalized to GP100, GDC 99 nM, CAL-101 202.5 nM, listed as GDC): significantly higher levels of IL-2; also recorded: maintained a significantly high level of IL-2 secretion

SMILES: Cc1cc(C(C)Nc2ccccc2)c2nc(N3CCOCC3)cc(=O)n2c1 (centres unmarked) [TGX-221]
- phenotype of CD8 T cells (TCM vs TEM) compared to non-treated cells [1]: no differences in the phenotype
- IC50 (p110α): 5 µM
- IC50 (p110δ): 0.1 µM
- IC50 (p110γ): > 10 µM
